Converted amounts (≈) assume the structure as drawn. Where a SMILES comes first, the peptide text is derived from it.
What was measured:
Mouse blood stability = format: in vitro ADME, CD-1 mice; conditions: CD-1, mouse, whole blood (EDTA as anticoagulant), 37 °C, SAR peptides, read-out: Blood stability (t1/2) (converted)
Experimental: Stability assays were performed using freshly collected matrices from CD-1 mice, with anticoagulant as stated per dataset. Compound stocks in DMSO were tested at 5 μM final concentration (0.5% (v/v) DMSO). Compounds were incubated in blood or plasma at 37 °C for 24 h, with sampling at 0, 1, 2, 4, 6 and 24 h. Samples were prepared via protein precipitation using organic solvent containing internal standard, and analyzed by LC-MS/MS. Compound remaining was quantified based on the ratio of analyte to internal standard, and the half-life (t1/2) was calculated from a log linear plot of % remaining versus time.

E. coli GKCW101 (WT) = conditions: caMHB; biological replicates or their range
Experimental: (§1) To evaluate the engagement of EcPBP3 by a bicyclic peptide in whole cells lacking the outer membrane permeability barrier, peptides were screened in ‘hyperporinated’ E. coli strains in which a constitutively open FhuA pore (FhuAΔC/Δ4L, lacking N-terminal cork domain and external loops) was chromosomally expressed under control of an arabinose-inducible promoter.
(§2) Minimal inhibition concentration (MIC) assays were performed in accordance with CLSI standards, using cation-adjusted Mueller Hinton broth (caMHB; Sigma Aldrich) unless otherwise specified. Induction of pore expression in hyperporinated strains E. coli GKCW101 and GKCW102 was performed by addition of 0.1% (w/v) L-arabinose to cultures at OD600 ~ 0.3, with caMHB as the culture medium.

E. coli GKCW102 (EcPore) = conditions: caMHB; biological replicates or their range
Experimental: as §1, §2

E. coli ATCC 25922 = assay: MIC, wild-type strain; format: cell-based, Escherichia coli
Experimental: as §2

[1] = tested on: Acinetobacter baumannii AR0275; assay: MIC; format: cell-based; conditions: caMHB, replicates listed
Experimental: as §2

[2] = tested on: Acinetobacter baumannii NCTC 12156; assay: MIC; format: cell-based; conditions: caMHB, replicates listed
Experimental: as §2

[3] = tested on: Citrobacter freundii AR0116; assay: MIC; format: cell-based; conditions: caMHB, replicates listed
Experimental: as §2

[4] = tested on: Citrobacter freundii B121; assay: MIC; format: cell-based; conditions: caMHB; replicates listed
Experimental: as §2

[5] = tested on: Enterobacter cloacae AR0032; assay: MIC; format: cell-based; conditions: caMHB; replicates listed
Experimental: as §2

[6] = tested on: Enterobacter cloacae AR0038; assay: MIC; format: cell-based; conditions: caMHB, replicates listed
Experimental: as §2

[7] = tested on: Enterobacter cloacae B173; assay: MIC; format: cell-based; conditions: caMHB; replicates listed
Experimental: as §2

[8] = tested on: Enterobacter cloacae KPC114; assay: MIC; format: cell-based
Experimental: as §2

[9] = tested on: Escherichia coli ATCC BAA-2469; assay: MIC; format: cell-based; conditions: caMHB, replicates listed
Experimental: as §2

[10] = tested on: Escherichia coli NCTC 13441; assay: MIC; format: cell-based; conditions: caMHB; replicates listed
Experimental: as §2

Escherichia coli UTI89 = assay: MIC; format: cell-based; conditions: caMHB; replicates listed
Experimental: as §2

[11] = tested on: Klebsiella pneumoniae ATCC 43816; assay: MIC; format: cell-based; conditions: caMHB; replicates listed
Experimental: as §2

[12] = tested on: Klebsiella pneumoniae ATCC 700603; assay: MIC; format: cell-based; conditions: caMHB; replicates listed
Experimental: as §2

[13] = tested on: Klebsiella pneumoniae B454; assay: MIC; format: cell-based; conditions: caMHB; replicates listed
Experimental: as §2

Proteus mirabilis AR159 = assay: MIC; format: cell-based; conditions: caMHB, replicates listed
Experimental: as §2

[14] = tested on: Proteus mirabilis ATCC 43071; assay: MIC; format: cell-based; conditions: caMHB; replicates listed
Experimental: as §2

[15] = tested on: Pseudomonas aeruginosa ATCC 27853; assay: MIC; format: cell-based; conditions: caMHB; replicates listed
Experimental: as §2

[16] = tested on: Pseudomonas aeruginosa NCTC 13437; assay: MIC; format: cell-based; conditions: caMHB; replicates listed
Experimental: as §2

Compound: CC(C)[C@@H]1NC(=O)[C@H](Cc2c[nH]c3ccccc23)NC(=O)[C@@H]2CCCN2C(=O)[C@@H]2CSCCC(=O)N3CN(CN(C3)C(=O)CCSC[C@H](N)C(=O)N[C@@H](CO)C(=O)N[C@@H](Cc3ccccc3)C(=O)N3CCC[C@H]3C(=O)N[C@@H](CCCCNC(=N)N)C(=O)N2)C(=O)CCSC[C@@H](C(=O)N[C@@H](C)C(N)=O)NC(=O)CNC(=O)[C@H](CCC(=O)O)NC1=O [Peptide 71] (HELM PEPTIDE1{C.S.F.P.[N=C(N)NCCCC[C@H](N[*:1])C(=O)[*:2]].C.P.W.V.E.G.C.A.[am]}|CHEM1{[O=C(CC[*:1])N1CN(C(=O)CC[*:2])CN(C(=O)CC[*:3])C1]}$PEPTIDE1,CHEM1,1:R3-1:R1|PEPTIDE1,CHEM1,6:R3-1:R2|PEPTIDE1,CHEM1,12:R3-1:R3$$$V2.0)
- half-life at 5 μM (Mouse blood stability): 5.7 h

Compound: ACSFPKCPWVEGCA* [Conjugate 2]
- MIC E. coli GKCW101 (WT) (E. coli GKCW101 (WT)): 4 to 8 mg/L
- MIC E. coli GKCW102 (EcPore) (E. coli GKCW102 (EcPore)): 0.5 to 1 mg/L
- MIC E. coli ATCC 25922 (E. coli ATCC 25922; MHB, biological replicates or their range): 1 to 2 mg/L
- MIC Escherichia coli ATCC 25922 (E. coli ATCC 25922; caMHB, replicates listed, number in brackets): 2,8 μg mL-1
- MIC Acinetobacter baumannii AR0275 [1]: > 64 mg/L
- MIC Acinetobacter baumannii NCTC 12156 [2]: > 64 mg/L
- MIC Citrobacter freundii AR0116 [3]: 8 mg/L
- MIC Citrobacter freundii B121 [4]: 8 mg/L
- MIC Enterobacter cloacae AR0032 [5]: 4 mg/L
- MIC Enterobacter cloacae AR0038 [6]: 8 mg/L
- MIC Enterobacter cloacae B173 [7]: 16 mg/L
- MIC Enterobacter cloacae KPC114 ([8]; caMHB, replicates listed): 8 mg/L
- MIC Escherichia coli ATCC BAA-2469 [9]: 8,8 μg mL-1
- MIC Escherichia coli NCTC 13441 [10]: 4,8 μg mL-1
- MIC Escherichia coli UTI89 (Escherichia coli UTI89): 8 mg/L
- MIC Klebsiella pneumoniae ATCC 43816 [11]: 8,16 μg mL-1
- MIC Klebsiella pneumoniae ATCC 700603 [12]: 16 mg/L
- MIC Klebsiella pneumoniae B454 [13]: 16,32 μg mL-1
- MIC Proteus mirabilis AR159 (Proteus mirabilis AR159): > 64 mg/L
- MIC Proteus mirabilis ATCC 43071 [14]: > 64 mg/L
- MIC Pseudomonas aeruginosa ATCC 27853 [15]: > 64 mg/L
- MIC Pseudomonas aeruginosa NCTC 13437 [16]: > 64 mg/L

Compound: C[C@@H](O)[C@H]1C(=O)N2C(C(=O)O)=C(S[C@@H]3CN[C@H](C(=O)N(C)C)C3)[C@H](C)[C@H]12 [Meropenem, reference compound]
- MIC ([1]; Acinetobacter baumannii, AR0275): > 2 mg/L
- MIC ([2]; Acinetobacter baumannii, NCTC12156): 1.1 mg/L (≈ 2.87 µM)
- MIC ([3]; Citrobacter freundii, AR0116): > 2 mg/L
- MIC ([6]; Enterobacter cloacae, AR0038): > 2 mg/L
- MIC ([8]; Enterobacter cloacae, KPC114, read-out: MIC Enterobacter cloacae KPC114): > 2 mg/L
- MIC ([9]; Escherichia coli, ATCCBAA2469): > 2 mg/L
- MIC (Proteus mirabilis AR159; Proteus mirabilis, AR159): > 2 mg/L

Source: article PMC12120022, “Discovery and chemical optimisation of a potent, Bi-cyclic antimicrobial inhibitor of Escherichia coli PBP3” (Communications Biology, 2025)
